Measurements: patent EP1025114B1, “3'-N-MODIFIED 6-O-SUBSTITUTED ERYTHROMYCIN KETOLIDE DERIVATIVES HAVING ANTIBACTERIAL ACTIVITY” (priority 1997, dated 1999)

Tests used:
Test in all cases: In vitro antibacterial activity, agar dilution MIC
Format in all cases: cell-based
[1] = tested on: Staphylococcus aureus A-5278; conditions: Staphylococcus aureus A-5278 (organism code CC); BHI agar, 35-37 °C, 20 to 24 hours; unit assumed
In short: (§1)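 BHI agar dilution; 12 successive concentrations; Steers replicator inoculum 1:100, or 1:10 for slow-growing strains (e.g. Streptococcus). Plates inspected visually; MIC = lowest drug level with no growth, faint haze or sparse colonies vs compound-free control. Same-class reference antibiotic run each test.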

[2] = tested on: Staphylococcus aureus CMX 642A; conditions: Staphylococcus aureus CMX 642A (organism code DD); BHI agar, 35-37 °C, 20 to 24 hours; unit assumed
In short: as §1

[3] = tested on: Streptococcus agalactiae CMX 508; conditions: Streptococcus agalactiae CMX 508 (organism code KK); BHI agar, 35-37 °C, 20 to 24 hours; unit assumed
In short: as §1

[4] = tested on: Streptococcus Pheumoniae 5649; conditions: Streptococcus Pheumoniae 5649 (organism code ZZA); BHI agar, 35-37 °C, 20 to 24 hours; unit assumed
In short: as §1

[5] = tested on: Nocardia Asteroides ATCC9970; conditions: Nocardia Asteroides ATCC9970 (organism code VV); BHI agar, 35-37 °C, 20 to 24 hours; unit assumed
In short: as §1

[6] = tested on: Staphylococcus epidermidis 3519; conditions: Staphylococcus epidermidis 3519 (organism code HH); BHI agar, 35-37 °C, 20 to 24 hours; unit assumed
In short: as §1

[7] = tested on: Haemophilis Influenzae DILL AMP R; conditions: Haemophilis Influenzae DILL AMP R (organism code WW); BHI agar, 35-37 °C, 20 to 24 hours; unit assumed
In short: as §1

[8] = tested on: Streptococcus pyogenes 930; conditions: Streptococcus pyogenes 930 (organism code MM); BHI agar, 35-37 °C, 20 to 24 hours; unit assumed
In short: as §1

[9] = tested on: Enterococcus faecium ATCC 8043; conditions: Enterococcus faecium ATCC 8043 (organism code II); BHI agar, 35-37 °C, 20 to 24 hours; unit assumed
In short: as §1

Escherichia coli DC-2 = Escherichia coli DC-2 (organism code SS); BHI agar, 35-37 °C, 20 to 24 hours; unit assumed
In short: as §1

[10] = tested on: Streptococcus Pheumoniae GYR 1171; conditions: Streptococcus Pheumoniae GYR 1171 (organism code YY); BHI agar, 35-37 °C, 20 to 24 hours; unit assumed
In short: as §1

[11] = tested on: Micrococcus luteus ATCC 9341; conditions: Micrococcus luteus ATCC 9341 (organism code OO); BHI agar, 35-37 °C, 20 to 24 hours; unit assumed
In short: as §1

Candida albicans CCH 442 = Candida albicans CCH 442 (organism code TT); BHI agar, 35-37 °C, 20 to 24 hours; unit assumed
In short: as §1

Escherichia coli SS = Escherichia coli SS (organism code RR); BHI agar, 35-37 °C, 20 to 24 hours; unit assumed
In short: as §1

[12] = tested on: Staphylococcus aureus CMX 553; conditions: Staphylococcus aureus CMX 553 (organism code FF); BHI agar, 35-37 °C, 20 to 24 hours; unit assumed
In short: as §1

[13] = tested on: Staphylococcus aureus A5177; conditions: Staphylococcus aureus A5177 (organism code BB); BHI agar, 35-37 °C, 20 to 24 hours; unit assumed
In short: as §1

[14] = tested on: Mycobacterium smegmatis ATCC 114; conditions: Mycobacterium smegmatis ATCC 114 (organism code UU); BHI agar, 35-37 °C, 20 to 24 hours; unit assumed
In short: as §1

[15] = tested on: Staphylococcus aureus NCTC10649M; conditions: Staphylococcus aureus NCTC10649M (organism code EE); BHI agar, 35-37 °C, 20 to 24 hours; unit assumed
In short: as §1

Escherichia coli JUHL = Escherichia coli JUHL (organism code QQ); BHI agar, 35-37 °C, 20 to 24 hours; unit assumed
In short: as §1

[16] = tested on: Staphylococcus aureus 1775; conditions: Staphylococcus aureus 1775 (organism code GG); BHI agar, 35-37 °C, 20 to 24 hours; unit assumed
In short: as §1

[17] = tested on: Streptococcus bovis A-5169; conditions: Streptococcus bovis A-5169 (organism code JJ); BHI agar, 35-37 °C, 20 to 24 hours; unit assumed
In short: as §1

[18] = tested on: Micrococcus luteus ATCC 4698; conditions: Micrococcus luteus ATCC 4698 (organism code PP); BHI agar, 35-37 °C, 20 to 24 hours; unit assumed
In short: as §1

[19] = tested on: Streptococcus pyogenes EES61; conditions: Streptococcus pyogenes EES61 (organism code LL); BHI agar, 35-37 °C, 20 to 24 hours; unit assumed
In short: as §1

[20] = tested on: Staphylococcus aureus ATCC 6538P; conditions: Staphylococcus aureus ATCC 6538P (organism code AA); BHI agar, 35-37 °C, 20 to 24 hours; unit assumed
In short: as §1

[21] = tested on: Streptococcus pyogenes PIU 2548; conditions: Streptococcus pyogenes PIU 2548 (organism code NN); BHI agar, 35-37 °C, 20 to 24 hours; unit assumed
In short: as §1

[22] = tested on: Streptococcus Pheumoniae 5979; conditions: Streptococcus Pheumoniae 5979 (organism code ZZ); BHI agar, 35-37 °C, 20 to 24 hours; unit assumed
In short: as §1

[23] = tested on: Streptococcus Pheumoniae ATCC6303; conditions: Streptococcus Pheumoniae ATCC6303 (organism code XX); BHI agar, 35-37 °C, 20 to 24 hours; unit assumed
In short: as §1

Compound | MIC [1] [µg/mL] | MIC [2] [µg/mL] | MIC [3] [µg/mL] | MIC [4] [µg/mL] | MIC [5] [µg/mL] | MIC [6] [µg/mL] | MIC [7] [µg/mL] | MIC [8] [µg/mL] | MIC [9] [µg/mL] | MIC (Escherichia coli DC-2) [µg/mL] | MIC [10] [µg/mL] | MIC [11] [µg/mL] | MIC (Candida albicans CCH 442) [µg/mL] | MIC (Escherichia coli SS) [µg/mL] | MIC [12] [µg/mL] | MIC [13] [µg/mL] | MIC [14] [µg/mL] | MIC [15] [µg/mL] | MIC (Escherichia coli JUHL) [µg/mL] | MIC [16] [µg/mL] | also measured
CC[C@H]1OC(=O)[C@H](C)C(=O)[C@H](C)[C@@H](O[C@@H]2O[C@H](C)C[C@H](N(C)CC3CC3)[C@H]2O)[C@](C)(OCC=Cc2cnc3ccccc3c2)C[C@@H](C)C(=O)[C@H](C)[C@H]2NC(=O)O[C@@]21C [Example 15, Compound of Formula (II); R is -CH2CH=CH-(3-quinolyl), R^p is H, W is absent, R^w is H, R^1 is CH2-(cyclo-C3H5), R^2 is CH3] | > 100 | 0.39 | 0.05 | 0.25 | 0.2 | 0.39 | 8 | 25 | 0.05 | > 100 | 0.03 | 0.05 | > 100 | 0.2 | 0.39 | 0.39 | 0.78 | 0.39 | > 100 | > 100 | MIC [17]: 0.02 µg/mL; MIC [18]: 0.39 µg/mL; MIC [19]: 0.02 µg/mL; MIC [20]: 0.39 µg/mL; MIC [21]: 0.1 µg/mL; MIC [22]: > 128 µg/mL; MIC [23]: 0.03 µg/mL
CCCN(C)[C@H]1C[C@@H](C)O[C@@H](O[C@@H]2[C@@H](C)C(=O)[C@@H](C)C(=O)O[C@H](CC)[C@@]3(C)OC(=O)N[C@@H]3[C@@H](C)C(=O)[C@H](C)C[C@@]2(C)OCC=Cc2cnc3ccccc3c2)[C@@H]1O [Example 16, Compound of Formula (II); R is -CH2CH=CH-(3-quinolyl), R^p is H, W is absent, R^w is H, R^1 is CH2CH2CH3, R^2 is CH3] | > 100 | 0.39 | 0.01 | 0.5 | 0.1 | 0.39 | 8 | 12.5 | 0.05 | > 100 | 0.03 | 0.02 | > 100 | 0.2 | 0.39 | 0.39 | 1.56 | 0.39 | > 100 | > 100 | MIC [17]: 0.01 µg/mL; MIC [18]: 0.39 µg/mL; MIC [19]: 0.01 µg/mL; MIC [20]: 0.39 µg/mL; MIC [21]: 0.1 µg/mL; MIC [22]: 128 µg/mL; MIC [23]: 0.03 µg/mL
